Results taken from patent US20060069132A1, “Azolecarboxamide herbicides” (priority 2004, published 2006).

Tests used:
barnyardgrass [1] = assay: Test B pre-/postemergence herbicide test; type: in vivo, Echinochloa crus-galli
How it was run: (§1)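 Test chemicals in a non-phytotoxic solvent mixture with surfactant were applied preemergence to seeded species and postemergence to plants 2-18 cm tall (1- to 4-leaf stage); rice and barnyardgrass were also tested in a flooded paddy at the 2-leaf stage. Visual rating versus controls after 13-15 days in greenhouse, scale 0 (no effect) to 100 (complete control).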

Surinam grass = assay: Test B pre-/postemergence herbicide test; type: in vivo, Urochloa decumbens
How it was run: (§2)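 Pre: seeds sown, then sprayed. Post: 1–4-leaf plants (2–18 cm) sprayed at the same time. Paddy: flooded, treated at 2-leaf stage. Formulation: non-phytotoxic solvent with surfactant. Greenhouse 13–15 days; visual 0–100 score relative to controls.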

cocklebur = assay: Test B pre-/postemergence herbicide test; type: in vivo, Xanthium strumarium
How it was run: as §1

corn = assay: Test B pre-/postemergence herbicide test; type: in vivo, Zea mays
How it was run: as §2

large crabgrass = assay: Test B pre-/postemergence herbicide test; type: in vivo, Digitaria sanguinalis
How it was run: as §2

giant foxtail = assay: Test B pre-/postemergence herbicide test; type: in vivo, Setaria faberi
How it was run: as §2

lambsquarters = assay: Test B pre-/postemergence herbicide test; type: in vivo, Chenopodium album
How it was run: as §2

morningglory = assay: Test B pre-/postemergence herbicide test; type: in vivo, Ipomoea coccinea
How it was run: as §1

pigweed = assay: Test B pre-/postemergence herbicide test; type: in vivo, Amaranthus retroflexus
How it was run: as §2

velvetleaf = assay: Test B pre-/postemergence herbicide test; type: in vivo, Abutilon theophrasti
How it was run: as §2

blackgrass = assay: Test B postemergence herbicide test; type: in vivo, Alopecurus myosuroides; details: for Plant response rating, Blackgrass: Postemergence, visual rating after 13 to 15 days; for Blackgrass plant response rating: postemergence
How it was run: (§3)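 Paddy species grown to the 2-leaf stage under flooding; blackgrass sprayed postemergence at 2–18 cm (1- to 4-leaf stage). Plants kept in a greenhouse for 13 to 15 days, then visually rated against controls on 0 (no effect) to 100 (complete control).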

wheat = assay: Test B postemergence herbicide test; type: in vivo, Triticum aestivum; design: key to Wheat plant response rating: 0 = no effect, 100 = complete control; details: for Plant response rating, Wheat: Postemergence, visual rating after 13 to 15 days; for Wheat plant response rating: postemergence
How it was run: (§4)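 Each value is a visual 0–100 response rating taken against controls 13 to 15 days after treatment in the greenhouse. Plants received formulated chemical postemergence at the 1- to 4-leaf stage or, in flooded paddy, at the 2-leaf stage.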

wild oat = assay: Test B postemergence herbicide test; type: in vivo, Avena fatua; details: for Plant response rating, Oat, Wild: Postemergence, visual rating after 13 to 15 days; for Oat, Wild plant response rating: postemergence
How it was run: as §4

rice = assay: Test B flooded paddy test; type: in vivo, Oryza sativa; details: 1000 g ai/ha, visual rating, scale 0 to 100 (0 no effect, 100 complete control), 13 to 15 days
How it was run: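 Plants grow to 1- to 4-leaf stage (2–18 cm) for postemergence spraying, or to 2-leaf stage for the paddy test. Formulated compound is applied. Greenhouse holding lasts 13–15 days. Response is scored visually relative to controls, 0 no effect to 100 complete control; a dash means no result.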

[2] = test system: small flower umbrella sedge; assay: Test B flooded paddy test; type: in vivo, Cyperus difformis; details: 1000 g ai/ha, visual rating, scale 0 to 100 (0 no effect, 100 complete control), 13 to 15 days
How it was run: as §3

ducksalad = assay: Test B flooded paddy test; type: in vivo, Heteranthera limosa; details: 1000 g ai/ha, visual rating, scale 0 to 100 (0 no effect, 100 complete control), 13 to 15 days
How it was run: as §3

barnyardgrass [3] = assay: Test B flooded paddy test; type: in vivo, Echinochloa crus-galli; details: 1000 g ai/ha, visual rating, scale 0 to 100 (0 no effect, 100 complete control), 13 to 15 days
How it was run: as §3

[4] = 500 g ai/ha, visual rating 0-100, 0 no effect, 100 complete control, preemergence
[5] = Postemergence, 500 g ai/ha, visual rating after 13 to 15 days, scale 0 (no effect) to 100 (complete control)
[6] = postemergence, 125 g ai/ha, visual rating, scale 0 (no effect) to 100 (complete control)
[7] = preemergence, 125 g ai/ha, 0 to 100 scale, 0 is no effect, 100 is complete control
[8] = 500 g ai/ha, scale 0 (no effect) to 100 (complete control)
[9] = 125 g ai/ha, visual rating, scale 0 (no effect) to 100 (complete control)
[10] = postemergence, 500 g ai/ha, visual rating, scale 0 (no effect) to 100 (complete control)
[11] = postemergence, 62 g ai/ha, scale 0 to 100
[12] = 500 g ai/ha, visual rating, scale 0 (no effect) to 100 (complete control)
[13] = Preemergence, 500 g ai/ha, scale 0 to 100

COc1ccc(C(C)=NO)cc1NC(=O)c1cc(C(C)(C)C)nn1C [Compound 104]
10: Plant response rating, Surinam Grass (Surinam grass; [5]) | Plant response rating, Pigweed (pigweed; [5]) | Pigweed plant response rating (pigweed; [6])
20: Plant response rating, Surinam Grass (Surinam grass; [4]) | Plant response rating, Foxtail, Giant (giant foxtail; [4]) | Plant response rating, Lambsquarters (lambsquarters; [5]) | Plant response rating, Morningglory (morningglory; [4])
70: Plant response rating, Pigweed (pigweed; [4]) | Sedge, Umbrella plant response rating [2]
90: Plant response rating, Crabgrass, Large (large crabgrass; [4])
60: Plant response rating, Lambsquarters (lambsquarters; [7]) | Plant response rating, Pigweed (pigweed; [7]) | Ducksalad plant response rating (ducksalad)
80: Plant response rating, Barnyardgrass (barnyardgrass [1]; [4]) | Plant response rating, Crabgrass, Large (large crabgrass; [7]) | Plant response rating, Lambsquarters (lambsquarters; [4])
0: Plant response rating, Barnyardgrass (barnyardgrass [1]; [5]) | Barnyardgrass plant response rating (barnyardgrass [1]; [6]) | Plant response rating, Barnyardgrass (barnyardgrass [1]; [7]) | Surinam Grass plant response rating (Surinam grass; [6]) | Plant response rating, Surinam Grass (Surinam grass; [7]) | Plant response rating, Cocklebur (cocklebur; [4]) | Plant response rating, Cocklebur (cocklebur; [5]) | Cocklebur plant response rating (cocklebur; [6]) | Plant response rating, Cocklebur (cocklebur; [7]) | Plant response rating, Corn (corn; [4]) | Plant response rating, Corn (corn; [5]) | Corn plant response rating (corn; [6]) | Plant response rating, Corn (corn; [7]) | Plant response rating, Crabgrass, Large (large crabgrass; [5]) | Crabgrass, Large plant response rating (large crabgrass; [6]) | Plant response rating, Foxtail, Giant (giant foxtail; [5]) | Foxtail, Giant plant response rating (giant foxtail; [6]) | Plant response rating, Foxtail, Giant (giant foxtail; [7]) | Lambsquarters plant response rating (lambsquarters; [6]) | Plant response rating, Morningglory (morningglory; [5]) | Morningglory plant response rating (morningglory; [6]) | Plant response rating, Morningglory (morningglory; [7]) | Plant response rating, Velvetleaf (velvetleaf; [4]) | Plant response rating, Velvetleaf (velvetleaf; [5]) | Velvetleaf plant response rating (velvetleaf; [6]) | Plant response rating, Velvetleaf (velvetleaf; [7]) | Plant response rating, Blackgrass (blackgrass; [8]) | Blackgrass plant response rating (blackgrass; [9]) | Plant response rating, Wheat (wheat; [8]) | Wheat plant response rating (wheat; [9]) | Plant response rating, Oat, Wild (wild oat; [8]) | Oat, Wild plant response rating (wild oat; [9]) | Rice plant response rating (rice) | Barnyardgrass plant response rating (barnyardgrass [3])

C=CCn1nc(C(C)(C)C)cc1C(=O)Nc1cccc(C(C)=O)c1 [Compound 129]
80: Sedge, Umbrella plant response rating [2]
30: Plant response rating, Pigweed (pigweed; [4]) | Barnyardgrass plant response rating (barnyardgrass [3])
70: Ducksalad plant response rating (ducksalad)
0: Barnyardgrass plant response rating (barnyardgrass [1]; [10]) | Barnyardgrass plant response rating (barnyardgrass [1]; [11]) | Surinam Grass plant response rating (Surinam grass; [11]) | Plant response rating, Corn (corn; [4]) | Crabgrass, Large plant response rating (large crabgrass; [11]) | Lambsquarters plant response rating (lambsquarters; [11]) | Plant response rating, Morningglory (morningglory; [4]) | Pigweed plant response rating (pigweed; [11]) | Velvetleaf plant response rating (velvetleaf; [11]) | Blackgrass plant response rating (blackgrass; [12]) | Blackgrass plant response rating (blackgrass; 62 g ai/ha, scale 0 to 100) | Wheat plant response rating (wheat; [12]) | Wheat plant response rating (wheat; 62 g ai/ha, scale 0 to 100) | Oat, Wild plant response rating (wild oat; [12]) | Oat, Wild plant response rating (wild oat; 62 g ai/ha, scale 0 to 100)
90: Plant response rating, Crabgrass, Large (large crabgrass; [4])
20: Surinam Grass plant response rating (Surinam grass; [10]) | Plant response rating, Cocklebur (cocklebur; [4]) | Plant response rating, Foxtail, Giant (giant foxtail; [4]) | Plant response rating, Lambsquarters (lambsquarters; [4]) | Velvetleaf plant response rating (velvetleaf; [10])
60: Plant response rating, Barnyardgrass (barnyardgrass [1]; [4]) | Cocklebur plant response rating (cocklebur; [10]) | Cocklebur plant response rating (cocklebur; [11])
10: Plant response rating, Surinam Grass (Surinam grass; [4]) | Crabgrass, Large plant response rating (large crabgrass; [10]) | Foxtail, Giant plant response rating (giant foxtail; [10]) | Foxtail, Giant plant response rating (giant foxtail; [11]) | Lambsquarters plant response rating (lambsquarters; [10]) | Pigweed plant response rating (pigweed; [10]) | Plant response rating, Velvetleaf (velvetleaf; [4]) | Rice plant response rating (rice)

CCNC(=O)c1cccc(NC(=O)c2cc(C(C)(C)C)nn2CC(C)C)c1 [Compound 42]
20: Plant response rating, Barnyardgrass (barnyardgrass [1]; [5]) | Plant response rating, Surinam Grass (Surinam grass; [5]) | Surinam Grass plant response rating (Surinam grass; [13]) | Plant response rating, Cocklebur (cocklebur; [5]) | Plant response rating, Corn (corn; [5]) | Plant response rating, Wheat (wheat; [8]) | Plant response rating, Oat, Wild (wild oat; [8])
30: Barnyardgrass plant response rating (barnyardgrass [1]; [13])
80: Lambsquarters plant response rating (lambsquarters; [13])
40: Pigweed plant response rating (pigweed; [13])
0: Cocklebur plant response rating (cocklebur; [13]) | Corn plant response rating (corn; [13]) | Rice plant response rating (rice) | Barnyardgrass plant response rating (barnyardgrass [3])
70: Plant response rating, Crabgrass, Large (large crabgrass; [5]) | Crabgrass, Large plant response rating (large crabgrass; [13]) | Plant response rating, Lambsquarters (lambsquarters; [5]) | Plant response rating, Pigweed (pigweed; [5])
10: Plant response rating, Foxtail, Giant (giant foxtail; [5]) | Foxtail, Giant plant response rating (giant foxtail; [13]) | Morningglory plant response rating (morningglory; [13]) | Velvetleaf plant response rating (velvetleaf; [13]) | Plant response rating, Blackgrass (blackgrass; [8])
60: Plant response rating, Velvetleaf (velvetleaf; [5])
50: Plant response rating, Morningglory (morningglory; [5]) | Sedge, Umbrella plant response rating [2] | Ducksalad plant response rating (ducksalad)
